{"source": "patent US20040137514A1", "about": "“Use of antibodies against specific mhc-peptide complexes” (priority 2000, published 2004)", "key": {"BLCL": {"system": "BLCL", "assay": "FACS control: peptide binding to BLCL", "design": "species or system human", "conditions": "data not shown", "protocol": "Briefly, 10^6 BLCL were incubated with 40 μg peptide in 500 μl DMEM/HAM's F12 or blank medium for 4 h at 37° C. After this incubation, the cells were washed with PBS, 2% FCS, 0.02% sodiumazide. Approximately 2×10^5 cells were incubated for 1 h, 4° C. with 130 μl MAb-containing hybridoma supernatant plus 20 μl PBS, 20% FCS, 0.02% sodiumazide. After washing the cells twice with PBS, 2% FCS, 0.02% sodiumazide, they were incubated for 1 h, 4° C. with 50 μl PBS, 20% FCS, 0.02% sodiumazide plus 10 μl Goat anti-mouseIg/FITC (Beckton & Dickinson). Subsequently, the cells were washed three times with PBS, 2% FCS, 0.02% sodiumazide and finally resuspended in 400 μl PBS, 2% p-formaldehyde. As a control for peptide binding, cells were incubated with biotinylated HC gp39263-275 and stained with streptavidin/PE (Beckton & Dickinson). As a control for HLA-DR expression, staining was performed with anti-HLA/DR, L243 (purified Ig from hybridoma ATCC HB 55). Stained cells were analyzed with the FACScan™ (Beckton & Dickinson). In all cases, forward and side scatter analysis was applied to eliminate dead cells and debris from further analysis.\nThese homozygous BLCL were loaded with HC gp-39263-275 and subsequently stained with ORG38948 12A. In a series of experiments, ORG38948 12A stains HC gp-39^263-275 in the context of both DRB1*0401 and DRB1*0407 (Table V). […]"}, "[1]": {"conditions": "BALB/c mice; cited from earlier work"}, "[2]": {"conditions": "intranasal administration prior to immunization; cited from earlier work"}, "[3]": {"conditions": "DBA/1 mice, semi-therapeutic regime; cited from earlier work"}, "T cells of RA patients": {"system": "T cells of RA patients", "conditions": "cited from earlier work"}}, "data": [{"substance": "RSFTLASSETG", "values": [{"measurement": "binding of peptide to the BLCL", "setting": "BLCL", "result": "binds to the BLCL"}]}, {"substance": "human cartilage glycoprotein-39 [HC gp-39]", "values": [{"measurement": "outcome of immunisation", "setting": "[1]", "result": "development of a chronic, relapsing arthritis"}, {"measurement": "DTH responses", "setting": "[2]", "result": "complete abrogation of DTH responses"}, {"measurement": "disease development", "setting": "[2]", "result": "protection from or delayed onset of the disease"}, {"measurement": "incidence and severity of collagen type II induced arthritis", "setting": "[3]", "result": "could reduce"}]}, {"substance": "326-338: peptide 326-338 of HC gp-39 (VGYDDQESVKSKV; HC gp-39 AA 326-338; listed as Homo sapiens)", "values": [{"measurement": "recognition by T cells of RA patients", "setting": "T cells of RA patients", "result": "recognized"}]}]}
